# Non-standard residues stand in square brackets, D forms with d. Residues, ends and D or L forms follow the SMILES beside them. No end group written: not given here.
# Tested on: SARS-CoV-2
# Settings: 96 h, 100 μM
row,Molecule,Inhibition %
1,RVTQMNLNARLASLYDKV [SEQ ID NO: 10],70.8%
2,RVTQMNLNDRLASLYAKV [SEQ ID NO: 12],77.4%
3,RVTQMNLNDRLVSLYDKV [SEQ ID NO: 11],73.9%
4,CSCC[C@H](NC(=O)[C@H](CCC(N)=O)NC(=O)[C@@H](NC(=O)[C@@H](NC(=O)[C@H](CCCNC(=N)N)NC(C)=O)C(C)C)[C@@H](C)O)C(=O)N[C@@H](CC(N)=O)C(=O)N[C@@H](CC(C)C)C(=O)N[C@H](CC(N)=O)C(=O)N[C@@H](CC(=O)O)C(=O)N[C@@H](CCCNC(=N)N)C(=O)N[C@@H](CC(C)C)C(=O)N[C@@H](C)C(=O)N[C@@H](CO)C(=O)N[C@@H](CC(C)C)C(=O)N[C@@H](Cc1ccc(O)cc1)C(=O)N[C@@H](CC(=O)O)C(=O)N[C@@H](CCCCN)C(=O)N[C@H](C(=O)O)C(C)C [SEQ ID NO: 4] (Ac-RVTQMNL[dN]DRLASLYDKV-OH; C-terminus assumed),92.4%
5,RVTQMNLADRLASLYDKV [SEQ ID NO: 16],79.6%
6,CSCC[C@H](NC(=O)[C@H](CCC(N)=O)NC(=O)[C@@H](NC(=O)[C@@H](NC(=O)[C@H](CCCNC(=N)N)NC(C)=O)C(C)C)[C@@H](C)O)C(=O)N[C@@H](CC(N)=O)C(=O)N[C@@H](CC(C)C)C(=O)N[C@@H](CC(N)=O)C(=O)N[C@H](CC(=O)O)C(=O)N[C@@H](CCCNC(=N)N)C(=O)N[C@@H](CC(C)C)C(=O)N[C@@H](C)C(=O)N[C@@H](CO)C(=O)N[C@@H](CC(C)C)C(=O)N[C@@H](Cc1ccc(O)cc1)C(=O)N[C@@H](CC(=O)O)C(=O)N[C@@H](CCCCN)C(=O)N[C@H](C(=O)O)C(C)C [SEQ ID NO: 5] (Ac-RVTQMNLN[dD]RLASLYDKV-OH; C-terminus assumed),85.3%
7,RATQMNLNDRLASLYDKV [SEQ ID NO: 6],82.2%
8,RVTQMNLNDRAASLYDKV [SEQ ID NO: 21],25.5%
9,RVTQMNLNDRLAALYDKV [SEQ ID NO: 18],69.2%
10,RVTQMNLNDALASLYDKV [SEQ ID NO: 17],72.7%

# Tested on: SARS-CoV-2
# Settings: not given
row,Molecule,inhibition of SARS-CoV-2 in primary cultures of human airway epithelium
1,RVTQMNLNDRAASLYDKV [SEQ ID NO: 21],≤ 20%

# Same assay, conditions: 72 h, 100 μM
Molecule,Bronchial HAE Inhibition %,Nasal HAE Inhibition %
CSCC[C@H](NC(=O)[C@H](CCC(N)=O)NC(=O)[C@@H](NC(=O)[C@@H](NC(=O)[C@H](CCCNC(=N)N)NC(C)=O)C(C)C)[C@@H](C)O)C(=O)N[C@@H](CC(N)=O)C(=O)N[C@@H](CC(C)C)C(=O)N[C@H](CC(N)=O)C(=O)N[C@@H](CC(=O)O)C(=O)N[C@@H](CCCNC(=N)N)C(=O)N[C@@H](CC(C)C)C(=O)N[C@@H](C)C(=O)N[C@@H](CO)C(=O)N[C@@H](CC(C)C)C(=O)N[C@@H](Cc1ccc(O)cc1)C(=O)N[C@@H](CC(=O)O)C(=O)N[C@@H](CCCCN)C(=O)N[C@H](C(=O)O)C(C)C [SEQ ID NO: 4] (Ac-RVTQMNL[dN]DRLASLYDKV-OH; C-terminus assumed),85%,80%
